Assay results as given in the supplement of paper PMC10307832.

Experiments:
Test in all cases: relative viability (nuclei count vs DMSO), 5 days (fraction); higher = more cells survive
[1] = compound: CCC1=CN=CN=C1N2CCN(CC2)CC3=NC4=C(N3)C=C(C=C4)C(F)(F)F
Summary of the method: (§1)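 Lung cancer cell lines were seeded into 1536-well plates, kept overnight at 37 °C and pinned with five library-drug doses (not always all listed) spaced by √10. After 5 days, nuclei were Hoechst-stained, imaged at 4× and counted with MetaXpress. Viability is treated-well nuclei over vehicle-well nuclei, taken as a median across plates. Plates needed control CV below 25% and at least one doubling.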

[2] = compound: CCn1c(-c2nonc2N)nc2cnc(Oc3cccc(NC(=O)c4ccc(OCCN5CCOCC5)cc4)c3)cc21
Summary of the method: as §1

Mirin = compound: N=C1NC(=O)/C(=C/c2ccc(O)cc2)S1 [Mirin]
Summary of the method: as §1

| Cell Line | relative viability ([1]; 0.04 µM) | relative viability ([1]; 0.1265 µM) | relative viability ([1]; 0.4 µM) | relative viability ([1]; 1.265 µM) | relative viability ([1]; 4 µM) | relative viability ([2]; 0.04 µM) | relative viability ([2]; 0.1265 µM) | relative viability ([2]; 0.4 µM) | relative viability ([2]; 1.265 µM) | relative viability ([2]; 4 µM) | relative viability (Mirin; 0.25 µM) | relative viability (Mirin; 0.7906 µM) | relative viability (Mirin; 2.5 µM) | relative viability (Mirin; 7.906 µM) | relative viability (Mirin; 25 µM) |
| --- | --- | --- | --- | --- | --- | --- | --- | --- | --- | --- | --- | --- | --- | --- | --- |
| 201T | 0.98 | 0.956 | 0.97 | 0.869 | 1.05 | 1.06 | 0.961 | 0.811 | 0.778 | 0.834 | 1.03 | 1.03 | 0.974 | 1.05 | 1.02 |
| A549 | 0.978 | 0.868 | 0.921 | 0.934 | 0.89 | 1.24 | 1.01 | 0.742 | 0.116 | 0.116 | 1.01 | 0.982 | 1.05 | 0.913 | 0.953 |
| A-427 | 0.885 | 0.961 | 0.857 | 0.808 | 0.887 | 1.23 | 0.936 | 0.727 | 0.587 | 0.444 | 0.983 | 0.716 | 1.02 | 0.961 | 1.03 |
| ABC-1 | 0.946 | 0.807 | 0.816 | 0.742 | 0.828 | 1.09 | 0.906 | 0.545 | 0.452 | 0.447 | 0.996 | 0.806 | 0.949 | 0.759 | 0.487 |
| BEN | 0.836 | 0.929 | 0.928 | 0.594 | 0.675 | 0.92 | 0.816 | 0.514 | 0.362 | 0.452 | 0.857 | 1.01 | 1.2 | 0.812 | 0.549 |
| CAL-12T | 0.985 | 0.941 | 0.958 | 0.974 | 1.01 | 1.33 | 1.13 | 0.927 | 0.479 | 0.654 | 1.07 | 0.861 | 1.02 | 0.982 | 1.23 |
| COR-L23 | 0.985 | 0.989 | 0.937 | 0.932 | 0.922 | 1.1 | 0.846 | 0.497 | 0.252 | 0.19 | 1.04 | 1.13 | 1.09 | 1.06 | 1.02 |
| COR-L 105 | 0.875 | 0.932 | 0.978 | 0.746 | 0.906 | 0.919 | 0.776 | 0.761 | 0.43 | 0.443 | 1.09 | 1.12 | 1.06 | 1.02 | 0.833 |
| Calu-6 | 1 | 0.986 | 0.953 | 0.898 | 0.925 | 1.05 | 1.02 | 0.841 | 0.604 | 0.549 | 1.02 | 1.07 | 1.06 | 0.923 | 0.987 |
| ChaGo-K-1 | 1.01 | 0.961 | 0.932 | 0.961 | 0.97 | 1.14 | 1.02 | 0.801 | 0.833 | 0.879 | 0.986 | 0.916 | 0.93 | 0.887 | 0.833 |
| EBC-1 | 1.08 | 1.01 | 0.986 | 0.946 | 0.996 | 1.24 | 1.01 | 0.913 | 0.904 | 0.797 | 1.09 | 1.19 | 1.05 | 0.987 | 0.665 |
| EKVX | 1.03 | 0.806 | 0.933 | 0.782 | 1.04 | 1.24 | 0.957 | 0.932 | 0.87 | 0.855 | 0.962 | 0.905 | 1.09 | 0.925 | 0.986 |
| EMC-BAC-2 | 0.77 | 0.877 | 0.925 | 0.802 | 1.15 | 0.94 | 0.862 | 0.43 | 0.405 | 0.343 | 0.993 | 0.907 | 1.01 | 0.857 | 0.971 |
| EPLC-272H | 0.801 | 0.979 | 0.87 | 0.797 | 0.793 | 1.26 | 1.01 | 0.873 | 0.705 | 0.74 | 0.944 |  | 0.945 | 0.762 | 0.721 |
| H3255 | 0.97 | 0.95 | 0.913 | 0.874 | 0.919 | 1.14 | 1.01 | 0.898 | 0.67 | 0.732 | 0.982 | 0.962 | 0.992 | 0.936 | 1 |
| HARA | 0.891 | 0.902 | 0.863 | 0.654 | 1.08 | 1.11 | 0.782 | 0.563 | 0.258 | 0.28 | 1.09 | 0.803 | 0.918 | 0.939 | 0.916 |
| HCC-15 | 0.999 | 0.946 | 0.934 | 0.897 | 1.04 | 1.12 | 0.964 | 0.844 | 0.77 | 0.911 | 1.06 | 0.798 | 0.979 | 0.884 | 0.953 |
| HCC-44 | 0.961 | 0.972 | 0.968 | 1.04 | 0.982 | 1.01 | 1.05 | 0.565 | 0.326 | 0.321 | 0.987 | 1.1 | 0.991 | 0.925 | 1.18 |
| HCC-78 | 0.875 | 0.894 | 0.888 | 0.746 | 0.756 | 1.2 | 1.08 | 0.75 | 0.955 | 1.16 | 0.887 | 0.838 | 1.11 | 0.894 | 1.09 |
| HCC-366 | 1 | 0.979 | 0.988 |  | 1.05 | 1.01 | 1.03 | 0.836 | 0.0886 | 0.098 | 1.03 | 0.868 | 0.982 | 1.03 | 0.947 |
| HCC-827 | 1.05 | 1.04 | 0.998 | 0.942 | 0.988 | 1.02 | 0.961 | 0.911 | 0.821 | 0.756 | 1.03 | 1.09 | 1.01 | 1.02 | 1.19 |
| HOP-62 | 1.03 | 0.946 | 0.95 | 0.936 | 1.06 | 1.13 | 1.02 | 0.899 | 0.549 | 0.537 | 0.979 | 1.07 | 0.983 | 0.856 | 1.1 |
| IA-LM | 0.839 | 0.96 | 0.891 | 0.931 | 0.89 | 1.34 | 1.06 | 0.998 | 0.952 | 1.02 | 0.962 | 1.07 | 0.928 | 0.653 | 1.18 |
